Experimental data as given in paper PMC3625590, “NBM-T-L-BMX-OS01, Semisynthesized from Osthole, Is a Novel Inhibitor of Histone Deacetylase and Enhances Learning and Memory in Rats” (Evidence-based Complementary and Alternative Medicine : eCAM, 2013).

Legend:
naïve rats = test: Water-maze learning, naïve rats; format: in vivo, Sprague-Dawley rats; details: 5 mg/kg/d i.p.
Experimental: SAHA was supplied by NatureWise Biotech and Medicals Corporation (Taipei, Taiwan). […] (St. Louis, MO, USA). The BMX and SAHA stock (100 mg/mL) was dissolved in DMSO and diluted with saline to a final concentration of 0.5 mg/mL (in 0.5% DMSO/saline). […] SD rats were randomly divided into 3 groups. For the naïve animal experiments, the BMX-injected or SAHA-injected groups were injected with BMX (5 mg/kg/d) or SAHA (5 mg/kg/d) intraperitoneally 7 d prior to behavioral experiments and during the experimentation. The control group received the 0.5% DMSO/saline injection. The injection volume was 10 μL/g of body weight. The injections were performed once per day. For the amnesia experiment, the protocol was adopted from previous studies with modifications. […] The control group received the 0.5% DMSO/saline injection. The injection volume was 10 μL/g of body weight. […] The method was adopted from that of a previous study with modifications. A plastic circular pool 2.0 m in diameter and 0.6 m in height was filled with water (25 ± 2°C) to a depth of 20 cm. A circular platform (8 cm in diameter) was placed at a specific location from the edge of the pool and submerged 2-3 cm below the water surface. Water was made cloudy by adding toxic-free dye. Distinctive visual cues were set on the wall. For spatial learning, animals were subjected to 3 trials per day, with one trial early in the morning, one trial at noon, and another in the late afternoon. The training procedure lasted 4 days, and a total of 12 trials were given. This procedure was adopted because spaced training is a better paradigm to facilitate memory consolidation. For these trials, the rats were positioned at different starting points spaced equally around the perimeter of the pool in random order. They had 120 s to find the hidden platform. […] The time each animal took to reach the platform was recorded as the escape latency. […] The rats were placed in the pool with the platform removed, and the time they spent in each quadrant (Quadrants 1, 2, 3, and 4) was recorded. […]

CREB = CREB phosphorylation at Ser133 in hippocampal cultured neurons; format: cell-based, Sprague-Dawley rats
Experimental: The primary hippocampal culture was prepared as described previously. To culture embryonic hippocampal primary neurons, pregnant Sprague-Dawley rats were purchased from the National Laboratory Center in Taiwan. The hippocampal tissue from the embryos of the Sprague-Dawley rats (E19) was dissociated with 100 U/mL of papain (Sigma-Aldrich) and plated onto poly-L-lysine-coated coverslips at a density of 1 × 10^4 cells/cm^2 with a minimal essential medium containing 5% calf serum, 5% horse serum, and 50 ng/mL insulin-transferrin-selenite (Sigma-Aldrich). Three hours after plating, the medium was replaced with 2% of a B27-neurobasal medium (Invitrogen, Carlsbad, CA, USA) containing 0.5 mM glutamine and 12.5 μM glutamate.
The hippocampus tissue and primary hippocampal cells were lysed and sonicated in an RIPA buffer (50 mM Tris-HCl (pH 7.4), 150 mM NaCl, 2 mM EDTA, 1% IGEPAL CA-630, 1 mM phenylmethylsulfonyl fluoride (PMSF), 20 μg/mL pepstatin A, 20 μg/mL leupeptin, 20 μg/mL aprotinin, 50 mM NaF, and 1 mM Na3VO4). The protocol was performed as described previously. The lysate was resolved by 8% SDS-PAGE. […] The protein bands were quantified using the NIH Image J Software.

HDAC8 = HDAC8 activity assay (Fluor-de-Lys) in brain nuclear extracts after behavioural tests; format: in vivo, Sprague-Dawley rats; details: 5 mg/kg/d i.p., compared with trained-control animals
Experimental: For the HDAC8 activity assay, the deacetylase activity of HDAC8 was measured using the commercially available Fluor-de-Lys-HDAC8 deacetylase substrate (Enzo, New York, NY, USA) according to the manufacturer instructions. […] The homogenate was centrifuged at 1000 ×g for 10 min to obtain the nuclei pellet. […] To determine the HDAC activity, 10 μg of nuclear extracts was incubated with a specific substrate (100 μM) for 30 min at 37°C, followed by the addition of a developer solution for 30 min at 37°C. […] Data were normalized to swimming control, footshock control, and nontrained-control animals.

## O=C(CCCCCCC(=O)Nc1ccccc1)NO [SAHA, suberoylanilide hydroxamic acid, reference compound]
naïve rats
  escape latency in finding the hidden platform: shortened escape latency
  visual discrimination ability, motor coordination, and motivational state (swimming speed, visible platform learning): Neither BMX nor SAHA affects
naïve rats; day 5
  probe trial, time spent in target quadrant: showed no difference compared with the control group
CREB
  CREB phosphorylation at Ser133: increased CREB phosphorylation at Ser133
HDAC8; 7 days after footshock
  HDAC8 activity in amygdala: did not have increased HDAC8 activity
HDAC8; after novel object recognition task
  HDAC8 activity in hippocampus: did not have further increased HDAC8 activity
HDAC8; after water-maze probe trial
  HDAC8 activity in hippocampus: did not increase HDAC8 activity
